Experimental data reported in patent publication US11149047B2, “Aryl imidazoles for treatment of cancer” (Aptose Biosciences Inc., priority 2017, dated 2021).

Experiments:
[1] = Stability / complex formation in culture medium and on storage; assay type: physicochemical; details: COMPOUND I incubated with complete tissue culture medium
Protocol: Five molar equivalents of ferrous ion as FeSO4 in a concentrated water stock was added to COMPOUND I in ethanol which produced a deep red precipitate that was subsequently dissolved in DMSO and characterized by HPLC and mass spectrometry. Fe(COMPOUND I)3 was >95% pure and stable in the complete RPMI-1640 media for at least 5 days.

[2] = tested on: protein levels in MV4-11 cells; assay: Reverse-phase protein array (RPPA) analysis; assay type: cell-based; details: 500 nmol/L, 6 h vs vehicle
Protocol: MV4-11 cells were treated as for RNA sequencing (RNA-seq) analysis and whole-cell extracts were prepared for Western blotting. Samples were processed at MD Anderson Cancer Center reverse-phase protein array (RPPA) core facility (details at https://www.mdanderson.org/research/research-resources/core-facilities/functional-proteomics-rppa-core/rppa-process.html). Protein expression levels were averaged for 3 replicates and heatmaps were drawn using GraphPad Prism 7.
To examine the effect of COMPOUND I on protein expression, MV4-11 cells were treated as above and analyzed by RPPA microarray to quantify >300 total and post-translationally modified proteins. […] Of note, there was an increase of cleaved caspase-7, which is indicative of apoptosis. GO analysis of the differentially expressed proteins was performed utilizing the Broad Molecular Signatures database. Significant GO terms included cell death and G1-S cell-cycle arrest pathways, a formal description of G0-G1 arrest, and consistent with the cell-cycle effects detected by flow cytometry and the RNA-seq analyses (FIG. 18C). An increase in E2F1, TP53, γH2AX, CHEK1 phos-S296, and CHEK2 phos-T68 supported the concept that DNA damage pathways are triggered by COMPOUND I treatment. In addition, increases in XBP1, HSPA5, and MAPK14 (p38) phos-T180/182 were observed, indicating ER or cellular stress ([…]; ref 15). DDR pathways can also signal through the MAPK pathway activating MAPK14 and MAPK8 (JNK), and cross-talk between the DDR pathway and ER stress is a well-established phenomenon although it is unclear which pathway represents the initiating event. A significant portion of the differentially expressed proteins and mRNAs are target genes of MYC oncoprotein, which is known to be an integral part of both cell-cycle and apoptotic pathway regulation.

[3] = tested on: TP53, phos-CHEK1, γH2AX, MAPK14, MAPK8 in MV4-11 cells; assay: Western blot of DNA damage and cell stress pathways; assay type: cell-based; details: 500 nmol/L
Protocol: Cells were treated as described above. Whole-cell lysates were prepared, separated by SDS-PAGE, and transferred to nitrocellulose membranes. Densitometry was performed using ImageJ or Image Studio Lite Version5.2 software and normalized to the density of GAPDH.
The increase in total protein was concomitant with an increase in phospho-Ser15 and acetyl-K382 (FIG. 12B). TP53 is phosphorylated at Ser15 and Ser20 in response to DNA damage, which reduces MDM2 binding and proteasomal degradation of p53. Furthermore, p53 is acetylated in response to cellular stress, and this modification can further stabilize TP53 protein levels and modulate binding activity. Activation of TP53 can trigger apoptosis through upregulation of proapoptotic factors such as BBC3 (PUMA), PMAIP1 (NOXA), and BAX. […] A concentration-dependent increase in ? H2AX was detected in all AML lines tested, thereby adding further credence to the concept that COMPOUND I triggers the DDR pathway (FIG. 12D).

[4] = tested on: H3K27ac at the MYC promoter in MV4-11 cells; assay: ChIP-qPCR for H3K27ac; assay type: cell-based; details: 500 nmol/L
Protocol: MV4-11 cells were treated with vehicle DMSO or 500 nmol/L COMPOUND I for 2, 6, or 24 hours and then crosslinked with 1% formaldehyde. Chromatin was extracted by sonication and then incubated with H3K27ac (Active Motif #39133) antibody overnight. The antibody:DNA complexes were isolated with Protein G beads (Invitrogen Dynabeads catalog #10004D) and analyzed by qPCR with primers specific to the MYC promoter (Table 7). H3K27ac enrichment was calculated as fold over input DNA control.
(§1) Regulation of MYC expression is a complex process that involves MYC transcription, mRNA stability, and protein turnover. ChIP-qPCR analysis for H3K27ac, a well-established marker of active chromatin, was performed to assess transcriptional competency of the MYC gene promoter after treatment with COMPOUND I (FIG. 19D). […] To determine whether COMPOUND I affected MYC mRNA stability, an RNA decay assay was performed on EOL-1 cells.

[5] = tested on: MYC mRNA stability in EOL-1 cells; assay: RNA decay assay; assay type: cell-based; details: 500 nmol/L 3 hours, then 1 μmol/L actinomycin D
Protocol: Cells were treated for 3 hours with vehicle DMSO or 500 nmol/L COMPOUND I followed by 1 μmol/L actinomycin D. Aliquots of cells were taken before and then every 10 minutes after actinomycin D addition for RNA extraction and cDNA synthesis as for qRT-PCR analysis. Levels of MYC and 28s rRNA were analyzed using specific primers (Table 8) and MYC RNA expression was normalized to 28 s rRNA [2^(28 s Ct value−MYC Ct value)].
as §1

## Cc1[nH]c2ccc(F)cc2c1-c1nc2c3cccnc3c3ncccc3c2[nH]1 [COMPOUND I, 2-(5-fluoro-2-methyl-1H-indol-3-yl)-1H-imidazo[4,5-f][1,10]phenanthroline]
[1]
  extracellular Fe(COMPOUND I)3 formation: no extracellular Fe(COMPOUND I)3 was detected
[2]
  fold change ACC_pS79: 1.302 fold
  fold change ADAR1: 1.308 fold
  fold change Bad_pS112: 1.55 fold
  fold change BiP-GRP78: 1.29 fold
  fold change CD29: 1.291 fold
  fold change Caspase-3: 2.382 fold
  fold change Caspase-7-cleaved: 1.671 fold
  fold change Chk1: 1.433 fold
  fold change Chk2_pT68: 1.312 fold
  fold change Cyclin-B1: 0.5944 fold
  fold change Cyclin-E1: 1.361 fold
  fold change DM-Histone-H3: 2.008 fold
  fold change DM-K9-Histone-H3: 2.003 fold
  fold change E2F1: 1.423 fold
  fold change Ets-1: 0.6034 fold
  fold change H2AX_pS140: 4.196 fold
  fold change Hif-1-alpha: 1.482 fold
  fold change Histone-H3: 5.083 fold
  fold change N-Ras: 1.397 fold
  fold change NDRG1_pT346: 0.4566 fold
  fold change PAI-1: 1.257 fold
  fold change PAR: 2.707 fold
  fold change PLK1: 0.4946 fold
  fold change Pdcd-1L1: 1.262 fold
  fold change Rb_pS807_S811: 0.6486 fold
  fold change S6_pS240_S244: 0.6467 fold
  fold change Syk: 1.433 fold
  fold change Ubq-Histone-H2B: 1.375 fold
  fold change XBP-1: 1.369 fold
  fold change p38_pT180_Y182: 2.022 fold
  fold change p53: 1.288 fold
[3]
  time at which an increase in phos-CHEK1 was detected: 1 h
  time of phos-CHEK1 peak: approximately 4 hours
[3]; 4- to 6-hour treatment
  MAPK14 and MAPK8 phosphorylation: increase in both MAPK14 phos-T180 and MAPK8 phos-Thr183/pTyr185
[3]; by 6 hours
  DDR marker γH2AX: robust increase
[3]; 1, 3, and 6 hours
  TP53 levels: significant increase in TP53 levels
[4]
  earliest time a decrease in H3K27ac at the MYC promoter was observed: 2 h
[5]
  MYC mRNA levels in pretreated cells versus vehicle: clear decrease in MYC mRNA levels
